Assay results reported in patent US20080171740A1, “Chemical Compounds” (SMITHKLINE BEECHAM CORPORATION, priority 2004, published 2008).
Where two headings read alike, the source gives them in different places.

How the values were obtained:
Type in all cases: cell-based
CXCR4 receptor = molecular target: T1, CXCR4 receptor (Homo sapiens, UniProt P61073); assay: Functional FLIPR assay (block of SDF-1 alpha induced [Ca2+]i change); settings: HEK-293 cells with human CXCR4 BacMam and Gqi5 BacMam; antagonism of SDF-1 alpha; read-out: Functional assay (pIC50) (converted)
T1 construct: expressed in transfected cells; host or cells: HEK-293 cells (stably expressing human macrophage scavenging receptor) transduced with human CXCR4 BacMam and Gqi5 BacMam
Method: Human embryonic kidney (HEK-293) cells were maintained and harvested as described above. Cells were plated in 96-well, black clear bottom, poly-lysine coated plates at a concentration of 40,000 cells per well in a final volume of 100 ul containing human CXCR4 BacMam (MOI=25) and Gqi5 BacMam (MOI=12.5). The cells were incubated at 37° C., 5% CO2, 95% humidity for 24 h to allow for protein expression.
After the required incubation time the cells were washed once with 50 ul of fresh serum-free DMEM/F12 media containing probenicid. 50 ul of dye solution was then added to the cells (Calcium Plus Assay Kit Dye; Molecular Devices) was dissolved in 200 ml of the above probenicid/BSA containing media and incubated for 1 h. Cell plates were transferred to a Fluorometric Imaging Plate Reader (FLIPR). Upon addition the effect of the compounds on the change in [Ca^2+]i was examined to determine if the compounds were agonists or antagonists (ability to block SDF-1 alpha activity) at the CXCR4 receptor. IC50 values are determined and pKb values are calculated using the Leff and Dougall equation: KB=IC50/((2+([agonist]/EC50̂b)̂1/b -1) Where IC50 is that defined by the antagonist concentration-response curve [agonist] is the EC80 concentration of agonist used EC50 is that defined by the agonist concentration-response curve b is the slope of the agonist concentration-response curve.

[1] = Compound cytotoxicity in the absence of virus (CellTiter-Glo); settings: human; non-infected HOS cultures, cell viability; read-out: Cytotox (pIC50) (converted)
Method: (§1) Compounds were profiled against two HIV-1 viruses, the M-tropic (CCR5 utilizing) Ba-L strain and the T-tropic (CXCR4 utilizing) IIIB strain. Both viruses were propagated in human peripheral blood lymphocytes. Compounds were tested for there ability to block infection of the HOS cell line (expressing hCXCR4/hCCR5/hCD4/pHIV-LTR-luciferase) by either HIV-1 Ba-L or HIV-1 IIIB. Compound cytotoxicity was also examined in the absence of virus addition.
(§2) HOS cells (expressing hCXCR4/hCCR5/hCD4/pHIV-LTR-luciferase) were harvested and diluted in Dulbeccos modified Eagles media supplemented with 2% FCS and non-essential amino acid to a concentration of 60,000 cells/ml. The cells were plated into 96-well plates (100 ul per well) and the plates were placed in a tissue culture incubator (37° C.; 5% CO2/95% air) for a period of 24 h.
(§3) Subsequently, 50 ul of the desired drug solution (4 times the final concentration) was added to each well and the plates were returned to the tissue culture incubator (37° C.; 5% CO2/95% air) for 1 h. Following this incubation 50 ul of diluted virus was added to each well (approximately 2 million RLU per well of virus). The plates were returned to the tissue culture incubator (37° C.; 5% CO2/95% air) and were incubated for a further 96 h.
(§4) Following this incubation the endpoint for the virally infected cultures was quantified following addition of Steady-Glo Luciferase assay system reagent (Promega, Madison, Wis.). Cell viability or non-infected cultures was measured using a CellTiter-Glo luminescent cell viability assay system (Promega, Madison, Wis.). All luminescent readouts are performed on a Topcount luminescence detector (Packard, Meridien, Conn.).

[2] = tested on: HIV-1 gp160 (HXB2 strain) mediated fusion with HOS (hCXCR4/hCCR5/hCD4/pHIV-LTR-luciferase) cells; assay: Cell/cell fusion assay (HEK-293 expressing HIV-1 tat, rev, gp160 with HOS hCXCR4/hCCR5/hCD4/pHIV-LTR-luciferase cells); settings: Homo sapiens, HEK293; luciferase readout after 24 h; read-out: Fusion assay (pIC50) (converted)
Source text: The complete coding sequences of HIV-1 tat (GenBank Accession No. X07861) and rev (GenBank Accession No. M34378) were cloned into pcDNA3.1 expression vectors containing G418 and hygromycin resistance genes, respectively. The complete coding sequence of the HIV-1 (HXB2 strain) gp160 envelope gene (nucleotide bases 6225-8795 of GenBank Accession No. K03455) was cloned into plasmid pCRII-TOPO. The three HIV genes were additionally inserted into the baculovirus shuttle vector, pFastBacMam1, under the transcriptional control of the CMV promoter. A construction of the pHIV-I LTR containing mutated NFkB sequences linked to the luciferase reporter gene was prepared by digesting pcDNA3.1, containing the G418 resistance gene, with Nru I and Bam HI to remove the CMV promoter. LTR-luc was then cloned into the Nru I/Bam HI sites of the plasmid vector. Plasmid preparations were performed after the plasmids were amplified in Escherichia coli strain DH5-alpha. The fidelity of the inserted sequences was confirmed by double-strand nucleotide sequencing using an ABI Prism Model 377 automated sequencer.
Recombinant BacMam baculoviruses were constructed from pFastBacMam shuttle plasmids by using the bacterial cell-based Bac-to-Bac system. Viruses were propagated in Sf9 (Spodoptera frugiperda) cells cultured in Hink's TNM-FH Insect media supplemented with 10% (v/v) fetal bovine serum and 0.1% (v/v) pluronic F-68 according to established protocols.
Human osteosarcoma (HOS) cells that naturally express human CXCR4 were transfected with human CCR5, human CD4 and the pHIV-LTR-luciferase plasmid using FuGENE 6 transfection reagent. Single cells were isolated and grown under selection condition in order to generate a stable HOS (hCXCR4/hCCR5/hCD4/pHIV-LTR-luciferase) clonal cell line. The cells were maintained in Dulbeccos modified Eagles media supplemented with 10% fetal calf serum (FCS), G418 (400 ug/ml), puromycin (1 ug/ml), mycophenolic acid (40 ug/ml), xanthine (250 ug/ml) and hypoxanthine (13.5 ug/ml) to maintain a selection pressure for cells expressing the LTR-luciferase, hCCR5 and hCD4, respectively. Human embryonic kidney (HEK-293) cells stably transfected to express the human macrophage scavenging receptor (Class A, type 1; GenBank Accession No. D90187), were maintained in DMEM/F-12 media (1:1) supplemented with 10% FCS and 1.5 ug/ml puromycin. The expression of this receptor by the HEK-293 cells enhances their ability to stick to tissue culture treated plasticware.
HEK-293 cells were harvested using enzyme-free cell dissociation buffer. The cells were resuspended in DMEM/F-12 media supplemented with 10% FCS and 1.5 ug/ml and counted. Tranductions were performed by direct addition of BacMam baculovirus containing insect cell media to cells. The cells were simultaneously transduced with BacMam baculovirus expressing HIV-1 tat, HIV-1 rev and HIV-1 gp160 (from the HXB2 HIV strain). Routinely an MOI of 10 of each virus was added to the media containing the cells. 2 mM butyric acid was also added to the cells at this stage to increase protein expression in transduced cells. The cells were subsequently mixed and seeded into a flask at 30 million cells per T225. The cells were incubated at 37° C., 5% CO2, 95% humidity for 24 h to allow for protein expression.
HEK and HOS cells were harvested in DMEM/F-12 media containing 2% FCS and DMEM media containing 2% FCS, respectively, with no selection agents added. Compounds were plated as 1 ul spots in 100% DMSO on a 96-well CulturPlate plates. HOS cells (50 ul) were added first to the wells, followed immediately by the HEK cells (50 ul). The final concentration of each cell type was 20,000 cells per well. Following these additions, the cells were returned to a tissue culture incubator (37° C.; 5% CO2/95% air) for an additional 24 h.
Following the 24 h incubation, total cellular luciferase activity was measured using the LucLite Plus assay kit (Packard, Meridien, Conn.). […]

[3] = tested on: HIV-1 IIIB strain, T-tropic (CXCR4 utilizing); assay: HOS HIV-1 infectivity assay
Method: as §1, §2, §3, §4

[4] = Human immunodeficiency virus 1, IIIB, HOS HIV anti-infectivity assay, strain not named in Table 2, read-out: Activity Level
[5] = Human immunodeficiency virus 1, HOS cells, HIV-1 IIIB, 96 h, luciferase, read-out: HOS (3B)

T1 sequence (P61073 whole entry): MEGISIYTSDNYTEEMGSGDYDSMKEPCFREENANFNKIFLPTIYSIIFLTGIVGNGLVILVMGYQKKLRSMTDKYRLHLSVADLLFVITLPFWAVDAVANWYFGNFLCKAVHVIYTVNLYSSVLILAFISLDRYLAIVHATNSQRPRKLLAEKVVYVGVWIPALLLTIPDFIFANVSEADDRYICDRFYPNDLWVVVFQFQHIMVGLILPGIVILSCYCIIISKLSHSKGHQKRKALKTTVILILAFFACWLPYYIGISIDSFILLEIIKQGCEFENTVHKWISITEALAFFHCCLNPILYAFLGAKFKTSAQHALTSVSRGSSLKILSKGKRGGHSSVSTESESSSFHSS

IC50 [3, 4] [nM] | Structure (SMILES) | other results
< 100 | CN1CCN(c2cccc3nc(CN(Cc4ccncc4)[C@H]4CCCc5cccnc54)cn23)CC1 [Example 32, (8S)-N-{[5-(4-Methyl-1-piperazinyl)imidazo[1,2-a]pyridin-2-yl]methyl}-N-(4-pyridinylmethyl)-5,6,7,8-tetrahydro-8-quinolinamine] | 
< 100 | CN1CCN(c2cccc3nc(CN(Cc4ccncc4)[C@H]4CCCc5cccnc54)c(CO)n23)CC1 [Example 36, [5-(4-Methyl-1-piperazinyl)-2-({(4-pyridinylmethyl)[(8S)-5,6,7,8-tetrahydro-8-quinolinyl]amino}methyl)imidazo[1,2-a]pyridin-3-yl]methanol] | 
< 100 | NCCCCN(Cc1nc2ccccn2c1Cl)C1CCCc2cccnc21 (centres unmarked) [Example 45, N-[(3-Chloroimidazo[1,2-a]pyridin-2-yl)methyl]-N-(5,6,7,8-tetrahydro-8-quinolinyl)-1,4-butanediamine] | 
< 100 | CN1CCN(c2cccc3nc(CN(Cc4ccccn4)[C@H]4CCCc5cccnc54)c(CO)n23)CC1 [Example 34, [5-(4-Methyl-1-piperazinyl)-2-({(2-pyridinylmethyl)[(8S)-5,6,7,8-tetrahydro-8-quinolinyl]amino}methyl)imidazo[1,2-a]pyridin-3-yl]methanol] | 
100 to 500 | NC1CCC(N(Cc2cn3ccccc3n2)C2CCCc3cccnc32)CC1 (centres unmarked) [Example 37, N-(Imidazo[1,2-a]pyridin-2-ylmethyl)-N-(5,6,7,8-tetrahydro-8-quinolinyl)-1,4-cyclohexanediamine] | 
< 100 | CN1CCN(c2cccc3nc(CN(Cc4ccccc4N(C)C)[C@H]4CCCc5cccnc54)cn23)CC1 [Example 29, (8S)-N-{[2-(Dimethylamino)phenyl]methyl}-N-{[5-(4-methyl-1-piperazinyl)imidazo[1,2-a]pyridin-2-yl]methyl}-5,6,7,8-tetrahydro-8-quinolinamine] | 
500 to 10000 | NCCCN(Cc1cn2ccccc2n1)C1CCCc2cccnc21 (centres unmarked) [Example 44, N-(Imidazo[1,2-a]pyridin-2-ylmethyl)-N-(5,6,7,8-tetrahydro-8-quinolinyl)-1,3-propanediamine] | 
100 to 500 | CN1CCN(c2cccc3nc(CN(Cc4ccccn4)[C@H]4CCCc5cccnc54)cn23)CC1 [Example 30, (8S)-N-{[5-(4-Methyl-1-piperazinyl)imidazo[1,2-a]pyridin-2-yl]methyl}-N-(2-pyridinylmethyl)-5,6,7,8-tetrahydro-8-quinolinamine] | 
< 100 | NCCCCN(Cc1nc2ccccn2c1Br)C1CCCc2cccnc21 (centres unmarked) [Example 46, N-[(3-Bromoimidazo[1,2-a]pyridin-2-yl)methyl]-N-(5,6,7,8-tetrahydro-8-quinolinyl)-1,4-butanediamine] | 
< 100 | CN1CCN(c2cccc3nc(CN(Cc4cccnc4)[C@H]4CCCc5cccnc54)c(CO)n23)CC1 [Example 35, [5-(4-Methyl-1-piperazinyl)-2-({(3-pyridinylmethyl)[(8S)-5,6,7,8-tetrahydro-8-quinolinyl]amino}methyl)imidazo[1,2-a]pyridin-3-yl]methanol] | 
100 to 500 | NCCCCCN(Cc1cn2ccccc2n1)C1CCCc2cccnc21 (centres unmarked) [Example 43, N-(Imidazo[1,2-a]pyridin-2-ylmethyl)-N-(5,6,7,8-tetrahydro-8-quinolinyl)-1,5-pentanediamine] | 
500 to 10000 | NCCN(Cc1cn2ccccc2n1)C1CCCc2cccnc21 (centres unmarked) [Example 42, N-(Imidazo[1,2-a]pyridin-2-ylmethyl)-N-(5,6,7,8-tetrahydroquinolin-8-yl)ethane-1,2-diamine] | 
< 100 | CN1CCN(c2cccc3nc(CN(Cc4cccnc4)[C@H]4CCCc5cccnc54)cn23)CC1 [Example 31, (8S)-N-{[5-(4-Methyl-1-piperazinyl)imidazo[1,2-a]pyridin-2-yl]methyl}-N-(3-pyridinylmethyl)-5,6,7,8-tetrahydro-8-quinolinamine] | 

Structure (SMILES) | IC50 [3, 4] [nM] | other results
NCCCCN(Cc1cn2c(F)cccc2n1)C1CCCc2cccnc21 (centres unmarked) [Example 14, N-[(5-Fluoroimidazo[1,2-a]pyridin-2-yl)methyl]-N-(5,6,7,8-tetrahydro-8-quinolinyl)-1,4-butanediamine] | < 100 | IC50 (CXCR4 receptor): 100 nM; IC50 at 96 h [1]: > 100000 nM; IC50 [2]: 407 nM; IC50 [3, 5]: 91 nM
NCCCCN(Cc1cn2c(Br)cccc2n1)C1CCCc2cccnc21 (centres unmarked) [Example 12, N-[(5-Bromoimidazo[1,2-a]pyridin-2-yl)methyl]-N-(5,6,7,8-tetrahydro-8-quinolinyl)-1,4-butanediamine] | < 100 | IC50 (CXCR4 receptor): 9.77 nM; IC50 at 96 h [1]: > 100000 nM; IC50 [2]: 28.8 nM; IC50 [3, 5]: 10 nM
